# Reference: patent EP4800012A1, “COMPOUND ACTING AS PARP7 INHIBITOR” (Dovetree Medicines Unus, Inc., priority 2023, dated 2025)
# What was measured:
# PARP7 [1] = molecular target: T1, PARP7 (Homo sapiens, UniProt Q7Z3E1); test: PARP7 TR-FRET binding inhibition (displacement of probe RBN011147)
# T1 construct: purchased BPS 80527
# T1 sequence (Q7Z3E1 1-657): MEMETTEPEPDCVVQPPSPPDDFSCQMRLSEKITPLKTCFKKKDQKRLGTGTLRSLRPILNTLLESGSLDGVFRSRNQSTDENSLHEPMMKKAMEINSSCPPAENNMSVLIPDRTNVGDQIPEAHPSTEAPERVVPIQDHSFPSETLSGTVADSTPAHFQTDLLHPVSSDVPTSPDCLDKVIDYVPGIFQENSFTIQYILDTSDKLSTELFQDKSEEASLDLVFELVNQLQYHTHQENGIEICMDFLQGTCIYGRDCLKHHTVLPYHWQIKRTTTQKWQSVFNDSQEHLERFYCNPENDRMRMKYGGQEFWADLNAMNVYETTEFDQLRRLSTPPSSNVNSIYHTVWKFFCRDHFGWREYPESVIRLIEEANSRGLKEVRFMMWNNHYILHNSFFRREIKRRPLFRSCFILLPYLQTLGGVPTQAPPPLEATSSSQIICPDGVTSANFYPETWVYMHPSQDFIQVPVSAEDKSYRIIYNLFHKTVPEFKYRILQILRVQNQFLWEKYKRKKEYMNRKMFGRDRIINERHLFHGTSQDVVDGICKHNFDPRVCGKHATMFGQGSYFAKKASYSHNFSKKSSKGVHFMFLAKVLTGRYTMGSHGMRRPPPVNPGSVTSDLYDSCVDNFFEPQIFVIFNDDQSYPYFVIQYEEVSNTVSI
# Method: The ability of the compound to substitute the probe RBN011147 (Wigle et al., 2020, Cell Chemical Biology 27, 877-887) was tested by a TR-FRET method, and IC50 was calculated to evaluate the binding ability of the compound to PARP7. […]
# NCI-H1373 cells = test: Inhibition on NCI-H1373 cell proliferation (Cell-Titer-Glo); assay type: cell-based; conditions: Homo sapiens, 144 h; NCI-H1373 cells, incubation for 6 days, Cell-Titer-Glo; read-out: NCI-H1373 cell proliferation inhibition IC50
# Method: The inhibitory effect of the compound on PARP7 was evaluated by testing the inhibitory effect of the compound on NCI-H1373 cell proliferation.
# NCI-H1373 cells (ATCC, CRL-5866) were cultured in a complete medium, namely, a RPMI-1640 medium (Gibco, 22400089) containing 10% fetal bovine serum (Corning, 35-081-CV).
# Negative control wells and positive control wells were added with 50 nL DMSO (Sigma, D2650), respectively.
# In "Day 0" detection plate, NCI-H1373 cells were seeded at a density of 600 cells/well (50 µL) in a complete medium into the Day 0 test wells of a 384-well detection plate (Grenier, 781091). Then, 25 µL of Cell-Titer-Glo reagent (Promega, G7573) was added to each well, followed by centrifugation at 1000 rpm at room temperature for 1 minute and incubation at room temperature under shaded conditions for 10 min. Chemiluminescence signals were collected using an Envision (Perkin Elmer, EnVision 2105) to obtain the average value of the Day 0 test values.
# In "compound detection plate", NCI-H1373 cells were seeded at a density of 600 cells/well (50 µL) in a complete medium into the negative control wells and the compound detection wells of a 384-well detection plate (Grenier, 781091), and 50 µL of cell culture medium was added to the positive control wells, followed by centrifugation at 1000 rpm at room temperature for 1 minute and placing in a cell incubator at 37°C, 5% CO2 for incubation for 6 days. […] Chemiluminescence signals were collected using an Envision (Perkin Elmer, EnVision 2105). The test values for each compound well, negative control well, and positive control well were obtained.
# The proliferation inhibition ratio formula is as follows: [formula]
# The average value of the negative control = the average value of the Day 6 test values of each negative control well minus the average value of the Day 0 test values
# The average value of the positive control = the average value of the Day 6 test values of each positive control well
# The average value of the compound test = (the Day 6 test value of compound test well 1 + the Day 6 test value of compound test well 2)/2 - the average value of the Day 0 test values
# PARP7 [2] = molecular target: T1, PARP7; test: Inhibition of the compound on PARP7 protein activity (ADP-ribosylation, chemiluminescence); assay type: biochemical
# [3] = TR-FRET, Biotin-labeled probe RBN011147, read-out: PARP7 binding inhibition IC50
# [4] = Histone H1 coated plate, Biotin-Labeled NAD+, 2 h at room temperature, chemiluminescence, read-out: PARP7 activity inhibition IC50
IC50 (PARP7 [1]; [3]) [nM],IC50 (NCI-H1373 cells) [nM],IC50 (PARP7 [2]; [4]) [nM],Compound,IC50 (PARP7 [1]) [nM],IC50 (PARP7 [2]) [nM],"IC50 (PARP7 [1]; read-out: PARP7 binding inhibition IC50, TR-FRET, Biotin-labeled probe RBN011147) [nM]","IC50 (PARP7 [2]; read-out: PARP7 activity inhibition IC50, Histone H1 coated plate, Biotin-Labeled NAD+, 2 h at room temperature, chemiluminescence) [nM]"
< 10,> 3000,< 3,CC(CCCN1C(=O)c2ccc(-c3ncc(C(F)(F)F)cn3)cc2C1=O)Nc1cn[nH]c(=O)c1C(F)(F)F (stereo not drawn) [Example 9],–,–,–,–
30 to 100,> 3000,< 3,Cc1c(CCC(=O)Nc2ccc(-c3ncc(C(F)(F)F)cn3)cn2)c[nH]c(=O)c1C(F)(F)F [Example 13],–,–,–,–
< 10,> 3000,< 3,CC(CCCNC(=O)c1ccc(-c2ncc(N3CCOCC3)cn2)cc1)Nc1cn[nH]c(=O)c1C(F)(F)F (stereo not drawn) [Example 14],–,–,–,–
10 to 30,> 3000,3 to 10,CC(CCCNC(=O)c1ccc(-c2ncc(N3CC(F)C3)s2)cc1)Nc1cn[nH]c(=O)c1C(F)(F)F (stereo not drawn) [Example 16],–,–,–,–
10 to 30,300 to 1000,< 3,CC(CCCNC(=O)c1ccc(-c2ncc(C(F)F)s2)cn1)Nc1cn[nH]c(=O)c1C(F)(F)F (stereo not drawn) [Example 23],–,–,–,–
< 10,1000 to 3000,< 3,CC(CCCNC(=O)c1cnc(-c2ncc(C(F)(F)F)s2)cn1)Nc1cn[nH]c(=O)c1C(F)(F)F (stereo not drawn) [Example 26],–,–,–,–
10 to 30,> 3000,< 3,CC(CCCNC(=O)c1ccc(-c2ncc(C(F)F)s2)cn1)Nc1cc[nH]c(=O)c1C(F)(F)F (stereo not drawn) [Example 29],–,–,–,–
30 to 100,> 3000,3 to 10,Cc1cnc(-c2cnc(C(=O)NCCCC(C)Nc3cc[nH]c(=O)c3C(F)(F)F)cn2)s1 (stereo not drawn) [Example 30],–,–,–,–
10 to 30,> 3000,< 3,CC(CCCNC(=O)c1cnc(-c2ncc(C(F)(F)F)s2)cn1)Nc1cc[nH]c(=O)c1C(F)(F)F (stereo not drawn) [Example 31],–,–,–,–
10 to 30,> 3000,< 3,CC(CCCNC(=O)c1cnc(-c2ncc(C(F)F)s2)cn1)Nc1cc[nH]c(=O)c1C(F)(F)F (stereo not drawn) [Example 32],–,–,–,–
< 10,> 3000,< 3,CC(CCCNC(=O)c1cnn(-c2ncc(C(F)(F)F)cn2)c1)Nc1cn[nH]c(=O)c1C(F)(F)F (stereo not drawn) [Example 38],–,–,–,–
< 10,300 to 1000,< 3,CC(CCCNC(=O)c1cc(-c2ncc(C(F)(F)F)cn2)on1)Nc1cn[nH]c(=O)c1C(F)(F)F (stereo not drawn) [Example 39],–,–,–,–
30 to 100,> 3000,< 3,CC#Cc1cnc(-c2ccc(C(=O)NCCCC(C)Nc3cn[nH]c(=O)c3C(F)(F)F)cc2)s1 (stereo not drawn) [Example 42],–,–,–,–
10 to 30,> 3000,3 to 10,CC(CCCNC(=O)c1ccc(-c2ncn(C)n2)cc1)Nc1cn[nH]c(=O)c1C(F)(F)F (stereo not drawn) [Example 47],–,–,–,–
30 to 100,> 3000,10 to 30,Cc1c(CCC(=O)Nc2ccc(-c3ncc(C(F)(F)F)cn3)cc2F)c[nH]c(=O)c1C(F)(F)F [Example 53],–,–,–,–

# More lines, now with the values behind:
Compound,IC50 (PARP7 [1]; [3]) [nM],IC50 (NCI-H1373 cells) [nM],IC50 (PARP7 [2]; [4]) [nM],IC50 (PARP7 [1]) [nM],IC50 (PARP7 [2]) [nM],"IC50 (PARP7 [1]; read-out: PARP7 binding inhibition IC50, TR-FRET, Biotin-labeled probe RBN011147) [nM]","IC50 (PARP7 [2]; read-out: PARP7 activity inhibition IC50, Histone H1 coated plate, Biotin-Labeled NAD+, 2 h at room temperature, chemiluminescence) [nM]"
CC(CCNC(=O)c1cccc2c1[nH]c(=O)n2-c1ncc(C(F)(F)F)cn1)Nc1cn[nH]c(=O)c1C(F)(F)F (stereo not drawn) [Example 6],30 to 100,> 3000,10 to 30,–,–,–,–
CC(CCCNC(=O)c1ccc(-c2ncc(N3CCOCC3)s2)cc1)Nc1cn[nH]c(=O)c1C(F)(F)F (stereo not drawn) [Example 15],10 to 30,> 3000,3 to 10,–,–,–,–
CC(CCCNC(=O)c1ccc(-c2cc(-c3cccnc3)sn2)cc1)Nc1cn[nH]c(=O)c1C(F)(F)F (stereo not drawn) [Example 18],< 10,300 to 1000,< 3,–,–,–,–
CC(CCCNC(=O)c1ccc(-c2ncc(C3CC3)s2)cc1)Nc1cn[nH]c(=O)c1C(F)(F)F (stereo not drawn) [Example 19],< 10,300 to 1000,< 3,–,–,–,–
CC(CCCNC(=O)c1ccc(-c2ncc(N3CC(F)C3)cn2)cc1)Nc1cn[nH]c(=O)c1C(F)(F)F (stereo not drawn) [Example 20],< 10,1000 to 3000,< 3,–,–,–,–
COc1cnc(-c2ccc(C(=O)NCCCC(C)Nc3cn[nH]c(=O)c3C(F)(F)F)c(F)c2)s1 (stereo not drawn) [Example 21],< 10,1000 to 3000,< 3,–,–,–,–
COc1cnc(-c2ccc(C(=O)NCCCC(C)Nc3cn[nH]c(=O)c3C(F)(F)F)cc2)s1 (stereo not drawn) [Example 22],10 to 30,1000 to 3000,< 3,–,–,–,–
CC(CCCNC(=O)c1cnc(-c2ncc(C(F)F)s2)cn1)Nc1cn[nH]c(=O)c1C(F)(F)F (stereo not drawn) [Example 25],< 10,1000 to 3000,< 3,–,–,–,–
COc1cnc(-c2ccc(C(=O)NCCCC(C)Nc3cc[nH]c(=O)c3C(F)(F)F)c(F)c2)s1 (stereo not drawn) [Example 27],10 to 30,> 3000,< 3,–,–,–,–
CC(CCCNC(=O)c1ccc(-c2ncc(C(F)F)s2)cn1)Nc1cn[nH]c(=O)c1C#N (stereo not drawn) [Example 28],> 100,> 3000,30 to 100,–,–,–,–
Cc1cc(NC(C)CCCN(C)C(=O)c2cnc(-c3ncc(C(F)(F)F)cn3)cn2)c(C#N)c(=O)[nH]1 (stereo not drawn) [Example 34],> 100,> 3000,30 to 100,–,–,–,–
Cc1cc(NC(C)CCCNC(=O)c2cnc(-c3ncc(C(F)(F)F)cn3)cn2)c(C#N)c(=O)[nH]1 (stereo not drawn) [Example 35],–,> 3000,–,30 to 100,10 to 30,–,–
CCOc1cnc(-c2ccc(C(=O)NCCCC(C)Nc3cn[nH]c(=O)c3C(F)(F)F)cc2)s1 (stereo not drawn) [Example 40],10 to 30,> 3000,< 3,–,–,–,–
CCCc1cnc(-c2ccc(C(=O)NCCCC(C)Nc3cn[nH]c(=O)c3C(F)(F)F)cc2)s1 (stereo not drawn) [Example 41],10 to 30,300 to 1000,< 3,–,–,–,–
CC(CCCNC(=O)c1ccc(-c2ncc(CC3CCCC3)s2)cc1)Nc1cn[nH]c(=O)c1C(F)(F)F (stereo not drawn) [Example 43],< 10,< 300,< 3,–,–,–,–
CC(CCCNC(=O)c1ccc(-c2ncc(CC3CC3)s2)cc1)Nc1cn[nH]c(=O)c1C(F)(F)F (stereo not drawn) [Example 44],< 10,1000 to 3000,< 3,–,–,–,–
CC(CCCNC(=O)c1ccc(-n2cccn2)nc1)Nc1cn[nH]c(=O)c1C(F)(F)F (stereo not drawn) [Example 45],10 to 30,> 3000,3 to 10,–,–,–,–
C[C@@H](CCCNC(=O)c1ccc(-c2nccs2)cn1)Nc1cn[nH]c(=O)c1C(F)(F)F [Example 46],–,> 3000,–,–,–,10 to 30,10 to 30
CC(CCCNC(=O)c1ccc(-n2cncn2)c(F)c1)Nc1cn[nH]c(=O)c1C(F)(F)F (stereo not drawn) [Example 48],30 to 100,> 3000,10 to 30,–,–,–,–
CC(CCCN(C)C(=O)c1cnc(-c2ncc(C(F)(F)F)cn2)cn1)Nc1cn[nH]c(=O)c1C(F)(F)F (stereo not drawn) [Example 50],10 to 30,> 3000,< 3,–,–,–,–
CC(CCCNC(=O)c1cnc(-c2ncc(C(F)(F)F)cn2)cn1)Oc1cn[nH]c(=O)c1C(F)(F)F (stereo not drawn) [Example 51],30 to 100,< 300,< 3,–,–,–,–
CC(CCCNC(=O)c1cnc(-c2ncc(C(F)(F)F)cn2)cn1)Nc1cc[nH]c(=O)c1C#N (stereo not drawn) [Example 52],30 to 100,> 3000,10 to 30,–,–,–,–
